Results: ChEMBL document CHEMBL1142222, “A-803467, a potent and selective Nav1.8 sodium channel blocker, attenuates neuropathic and inflammatory pain in the rat” (Proc Natl Acad Sci U S A, 2007)
Active and inactive are the calls of the source. The calls are words filed in the database; no cut-off is given here.

Legend:
Rattus norvegicus [1] = assay: Analgesic activity in rat L5/L6 spinal nerve ligation-induced neuropathic pain model at 100 mg/kg, ip; assay type: functional; details: route intraperitoneal
Rattus norvegicus [2] = assay: Analgesic activity in ip dosed rat chronic constriction injury model of mechanical allodynia; assay type: functional
Rattus norvegicus [3] = assay: Analgesic activity in ip dosed rat chronic constriction injury model of cold allodynic neuropathic pain; assay type: functional
Rattus norvegicus [4] = assay: Analgesic activity in ip dosed rat vincristine-induced mechanical allodynic neuropathic pain; assay type: functional
Rattus norvegicus [5] = assay: Analgesic activity in ip dosed rat skin incision model of post-operative pain after 2 hrs; assay type: functional
Rattus norvegicus [6] = assay: Analgesic activity in rat skin incision model of post-operative pain at 100 mg/kg, ip after 24 hrs; assay type: functional; details: route intraperitoneal
Mus musculus = assay: Analgesic activity in ip dosed mouse visceral pain model assessed as acetic acid induced writhing; assay type: functional
Rattus norvegicus [7] = assay: Analgesic activity in ip dosed rat colonic distension model; assay type: functional
Rattus norvegicus [8] = assay: Analgesic activity in rat colonic distension model at 100 mg/kg, ip; assay type: functional; details: route intraperitoneal
Rattus norvegicus [9] = organism: Rattus norvegicus; assay: Motor effect in rat assessed as locomotory activity; assay type: functional
Rattus norvegicus [10] = assay: Motor effect in rat assessed as locomotory activity at 300 mg/kg, ip; assay type: functional; details: route intraperitoneal
Rattus norvegicus [11] = assay: Motor effect in ip dosed rat assessed as latency to fall by edge balance test; assay type: functional
P2Y purinoceptor 2 = P2Y purinoceptor 2 (Homo sapiens, UniProt P41231); assay: Displacement of [35S]dATP-alpha-S from P2Y receptor
[12] = target: 5-hydroxytryptamine receptor 1B (Homo sapiens, UniProt P28222); assay: Displacement of [3H]CYP from 5HT1B receptor
[13] = target: 5-hydroxytryptamine receptor 2A (Homo sapiens, UniProt P28223); assay: Displacement of [3H]ketanserin from 5HT2A receptor
[14] = target: 5-hydroxytryptamine receptor 2C (Homo sapiens, UniProt P28335); assay: Displacement of [3H]mesulergine from 5HT2C receptor
Chain of 5-hydroxytryptamine receptor 2C (P28335 whole entry): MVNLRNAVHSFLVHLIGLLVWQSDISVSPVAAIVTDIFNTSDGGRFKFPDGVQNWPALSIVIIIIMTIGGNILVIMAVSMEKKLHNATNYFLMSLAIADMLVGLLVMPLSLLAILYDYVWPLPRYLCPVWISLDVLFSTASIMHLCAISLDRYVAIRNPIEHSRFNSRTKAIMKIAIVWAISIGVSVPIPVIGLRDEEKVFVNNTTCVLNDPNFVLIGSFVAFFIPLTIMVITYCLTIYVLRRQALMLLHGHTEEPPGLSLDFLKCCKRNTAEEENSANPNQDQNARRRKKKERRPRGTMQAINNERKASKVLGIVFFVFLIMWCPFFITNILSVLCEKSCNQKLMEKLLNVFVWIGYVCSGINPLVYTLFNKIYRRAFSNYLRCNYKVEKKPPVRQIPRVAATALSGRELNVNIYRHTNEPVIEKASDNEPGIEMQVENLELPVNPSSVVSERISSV

[15] = target: Sigma non-opioid intracellular receptor 1 (Homo sapiens, UniProt Q99720); assay: Displacement of [3H]pentazocine from sigma1 receptor
Chain of Sigma non-opioid intracellular receptor 1 (Q99720 whole entry): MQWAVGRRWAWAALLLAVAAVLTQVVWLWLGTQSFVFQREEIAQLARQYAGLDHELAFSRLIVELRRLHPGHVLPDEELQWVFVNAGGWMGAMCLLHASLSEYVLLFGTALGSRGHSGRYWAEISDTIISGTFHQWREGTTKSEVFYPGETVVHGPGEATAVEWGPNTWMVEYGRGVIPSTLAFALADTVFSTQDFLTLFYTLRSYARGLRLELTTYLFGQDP

[16] = target: Sodium channel protein type 10 subunit alpha (Rattus norvegicus, UniProt Q62968); assay: Inhibition of recombinant rat Nav1.8 sodium channel assessed as blockade of TTXR current by patch clamp method
[17] = Oral bioavailability in rat; assay type: ADME, organism-based; details: in vivo
[18] = Clearance in rat plasma; assay type: ADME, organism-based
[19] = Cmax in rat at 10 mg/kg, po; assay type: ADME, organism-based; set-up: dose 10 mg/kg, route oral; details: in vivo
[20] = target: Potassium voltage-gated channel subfamily KQT member 2 (Homo sapiens, UniProt O43526); assay: Inhibition of KCNQ2 channel
DRG neuron = assay: Suppression of evoked action potential firing in rat DRG neurons at 0.1 uM; assay type: functional
[21] = Bioavailability in rat at 10 mg/kg, ip; assay type: ADME, organism-based; details: in vivo
[22] = Drug level in rat plasma at 10 to 100 mg/kg, ip after 45 mins; assay type: ADME, organism-based; set-up: dose 10-100 mg/kg, route intraperitoneal
[23] = Protein binding in rat plasma; assay type: ADME, cell-free; details: read-out: PPB (converted)
Rattus norvegicus [24] = assay: Antinociceptive activity in rat assessed as reduction of spontaneous firing of spinal dorsal horn wide dynamic range neurons at 20 mg/kg, iv; assay type: functional, Dorsal horn of spinal cord; set-up: scale not given: the % may be the effect or the level left
Rattus norvegicus [25] = assay: Analgesic activity in ip dosed rat acute thermal stimulation nociception model assessed as paw withdrawal latency; assay type: functional
Rattus norvegicus [26] = assay: Analgesic activity in ip dosed rat acute mechanical stimulation nociception model assessed as paw withdrawal latency; assay type: functional
Rattus norvegicus [27] = assay: Analgesic activity in ip dosed rat formalin flinching inflammatory pain model; assay type: functional
Rattus norvegicus [28] = assay: Analgesic activity in ip dosed rat capsaicn induced mechanical allodynia model; assay type: functional
Rattus norvegicus [29] = assay: Analgesic activity in rat capsaicn induced mechanical allodynia model at 300 mg/kg, ip; assay type: functional; details: route intraperitoneal
Rattus norvegicus [30] = assay: Analgesic activity in rat carrageenan-induced […] pain model at 100 mg/kg, ip; assay type: functional; details: route intraperitoneal
Rattus norvegicus [31] = assay: Analgesic activity in ip dosed rat complete Freund's adjuvant-induced mechanical hyperalgesia model assessed as paw withdrawal latency after 2 days; assay type: functional; details: 48 h
Adenosine receptor A1 = Adenosine receptor A1 (Homo sapiens, UniProt P30542); assay: Displacement of [3H]DPCPX from adenosine A1 receptor
[32] = target: Beta-2 adrenergic receptor (Homo sapiens, UniProt P07550); assay: Displacement of [3H](-)CGP-12177 from adrenergic beta2 receptor
Endothelin-1 receptor = Endothelin-1 receptor (Homo sapiens, UniProt P25101); assay: Displacement of [125I]endothelin-1 from endothelin ETA receptor
Cannabinoid receptor 2 = Cannabinoid receptor 2 (Homo sapiens, UniProt P34972); assay: Displacement of [3H]Win 55212-2 from cannabinoid CB2 receptor
Chain of Cannabinoid receptor 2 (P34972 whole entry): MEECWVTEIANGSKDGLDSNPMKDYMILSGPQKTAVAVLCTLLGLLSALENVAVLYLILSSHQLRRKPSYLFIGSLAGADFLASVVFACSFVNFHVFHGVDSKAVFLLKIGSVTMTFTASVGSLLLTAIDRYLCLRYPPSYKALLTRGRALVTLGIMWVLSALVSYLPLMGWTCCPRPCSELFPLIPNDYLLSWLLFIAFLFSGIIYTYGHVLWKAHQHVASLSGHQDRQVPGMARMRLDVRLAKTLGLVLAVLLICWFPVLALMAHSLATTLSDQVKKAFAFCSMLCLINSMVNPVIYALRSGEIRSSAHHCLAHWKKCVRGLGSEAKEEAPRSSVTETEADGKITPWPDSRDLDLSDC

[33] = target: Sodium channel protein type 2 subunit alpha (Homo sapiens, UniProt Q99250); assay: Inhibition of human Nav1.2 channel expressed in HEK293 cells at -120 mV by patch clamp method; assay type: cell-based
[34] = target: T1, Sodium channel protein type 3 subunit alpha (Homo sapiens, UniProt Q9NY46); assay: Inhibition of human Nav1.3 channel expressed in HEK293 cells at -120 mV by patch clamp method; assay type: cell-based
T1 sequence (Q9NY46 whole entry): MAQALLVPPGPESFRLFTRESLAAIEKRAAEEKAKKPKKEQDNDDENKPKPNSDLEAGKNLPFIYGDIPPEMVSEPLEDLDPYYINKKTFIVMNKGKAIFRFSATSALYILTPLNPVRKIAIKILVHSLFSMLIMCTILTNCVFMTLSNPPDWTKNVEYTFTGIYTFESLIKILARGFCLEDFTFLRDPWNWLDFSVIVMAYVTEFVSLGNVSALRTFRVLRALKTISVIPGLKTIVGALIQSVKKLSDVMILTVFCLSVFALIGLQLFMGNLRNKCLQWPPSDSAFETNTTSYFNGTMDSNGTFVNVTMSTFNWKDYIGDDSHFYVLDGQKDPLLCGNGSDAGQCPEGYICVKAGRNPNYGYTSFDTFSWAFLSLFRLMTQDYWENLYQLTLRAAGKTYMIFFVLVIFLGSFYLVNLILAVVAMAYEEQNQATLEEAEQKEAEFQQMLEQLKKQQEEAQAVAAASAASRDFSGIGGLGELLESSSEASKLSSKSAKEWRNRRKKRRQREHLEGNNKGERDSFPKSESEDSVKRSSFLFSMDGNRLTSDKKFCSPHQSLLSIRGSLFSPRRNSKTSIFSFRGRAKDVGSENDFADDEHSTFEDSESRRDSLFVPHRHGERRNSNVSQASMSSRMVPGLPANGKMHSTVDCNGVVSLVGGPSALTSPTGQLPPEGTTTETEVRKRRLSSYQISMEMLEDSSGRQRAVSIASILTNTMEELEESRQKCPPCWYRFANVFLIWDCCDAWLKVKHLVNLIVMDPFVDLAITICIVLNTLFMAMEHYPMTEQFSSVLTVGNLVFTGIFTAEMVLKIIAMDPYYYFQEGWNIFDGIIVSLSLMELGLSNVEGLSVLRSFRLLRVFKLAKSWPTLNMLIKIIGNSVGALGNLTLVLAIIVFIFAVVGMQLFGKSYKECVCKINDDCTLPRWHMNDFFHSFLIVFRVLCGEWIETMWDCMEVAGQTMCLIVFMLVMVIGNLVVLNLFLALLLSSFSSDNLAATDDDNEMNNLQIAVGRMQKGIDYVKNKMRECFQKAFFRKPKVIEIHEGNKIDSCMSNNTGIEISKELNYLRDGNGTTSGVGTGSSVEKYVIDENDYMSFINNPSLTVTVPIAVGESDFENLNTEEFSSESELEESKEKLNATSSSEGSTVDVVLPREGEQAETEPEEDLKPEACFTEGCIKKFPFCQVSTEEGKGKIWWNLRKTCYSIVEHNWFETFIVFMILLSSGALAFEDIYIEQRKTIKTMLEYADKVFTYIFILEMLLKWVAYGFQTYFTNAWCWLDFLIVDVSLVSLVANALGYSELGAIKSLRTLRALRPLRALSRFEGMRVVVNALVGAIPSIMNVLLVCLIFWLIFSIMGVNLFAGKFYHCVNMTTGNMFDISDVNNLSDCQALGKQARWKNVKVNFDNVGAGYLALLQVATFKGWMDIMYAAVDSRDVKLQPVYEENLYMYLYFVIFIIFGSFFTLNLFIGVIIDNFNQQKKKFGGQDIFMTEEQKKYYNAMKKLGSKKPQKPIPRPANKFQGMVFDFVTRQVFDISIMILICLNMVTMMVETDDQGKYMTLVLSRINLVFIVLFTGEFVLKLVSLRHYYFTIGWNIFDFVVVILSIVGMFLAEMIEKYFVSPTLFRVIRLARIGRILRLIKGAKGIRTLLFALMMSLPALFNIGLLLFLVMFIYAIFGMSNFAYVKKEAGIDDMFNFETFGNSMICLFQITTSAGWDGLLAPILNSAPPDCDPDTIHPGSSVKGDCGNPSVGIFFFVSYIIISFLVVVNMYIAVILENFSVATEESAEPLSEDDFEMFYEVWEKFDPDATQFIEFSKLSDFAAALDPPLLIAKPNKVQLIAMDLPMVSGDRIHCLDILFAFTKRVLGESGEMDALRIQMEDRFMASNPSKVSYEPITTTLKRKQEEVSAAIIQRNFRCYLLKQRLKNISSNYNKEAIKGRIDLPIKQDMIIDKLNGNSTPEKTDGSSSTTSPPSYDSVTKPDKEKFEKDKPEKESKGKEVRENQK

[35] = target: T1, Sodium channel protein type 3 subunit alpha; assay: Inhibition of human Nav1.3 channel expressed in HEK293 cells at -60 mV by patch clamp method; assay type: cell-based
[36] = target: T2, Sodium channel protein type 5 subunit alpha (Homo sapiens, UniProt Q14524); assay: Inhibition of human Nav1.5 channel expressed in HEK293 cells at -150 mV by patch clamp method; assay type: cell-based
T2 sequence (Q14524 whole entry): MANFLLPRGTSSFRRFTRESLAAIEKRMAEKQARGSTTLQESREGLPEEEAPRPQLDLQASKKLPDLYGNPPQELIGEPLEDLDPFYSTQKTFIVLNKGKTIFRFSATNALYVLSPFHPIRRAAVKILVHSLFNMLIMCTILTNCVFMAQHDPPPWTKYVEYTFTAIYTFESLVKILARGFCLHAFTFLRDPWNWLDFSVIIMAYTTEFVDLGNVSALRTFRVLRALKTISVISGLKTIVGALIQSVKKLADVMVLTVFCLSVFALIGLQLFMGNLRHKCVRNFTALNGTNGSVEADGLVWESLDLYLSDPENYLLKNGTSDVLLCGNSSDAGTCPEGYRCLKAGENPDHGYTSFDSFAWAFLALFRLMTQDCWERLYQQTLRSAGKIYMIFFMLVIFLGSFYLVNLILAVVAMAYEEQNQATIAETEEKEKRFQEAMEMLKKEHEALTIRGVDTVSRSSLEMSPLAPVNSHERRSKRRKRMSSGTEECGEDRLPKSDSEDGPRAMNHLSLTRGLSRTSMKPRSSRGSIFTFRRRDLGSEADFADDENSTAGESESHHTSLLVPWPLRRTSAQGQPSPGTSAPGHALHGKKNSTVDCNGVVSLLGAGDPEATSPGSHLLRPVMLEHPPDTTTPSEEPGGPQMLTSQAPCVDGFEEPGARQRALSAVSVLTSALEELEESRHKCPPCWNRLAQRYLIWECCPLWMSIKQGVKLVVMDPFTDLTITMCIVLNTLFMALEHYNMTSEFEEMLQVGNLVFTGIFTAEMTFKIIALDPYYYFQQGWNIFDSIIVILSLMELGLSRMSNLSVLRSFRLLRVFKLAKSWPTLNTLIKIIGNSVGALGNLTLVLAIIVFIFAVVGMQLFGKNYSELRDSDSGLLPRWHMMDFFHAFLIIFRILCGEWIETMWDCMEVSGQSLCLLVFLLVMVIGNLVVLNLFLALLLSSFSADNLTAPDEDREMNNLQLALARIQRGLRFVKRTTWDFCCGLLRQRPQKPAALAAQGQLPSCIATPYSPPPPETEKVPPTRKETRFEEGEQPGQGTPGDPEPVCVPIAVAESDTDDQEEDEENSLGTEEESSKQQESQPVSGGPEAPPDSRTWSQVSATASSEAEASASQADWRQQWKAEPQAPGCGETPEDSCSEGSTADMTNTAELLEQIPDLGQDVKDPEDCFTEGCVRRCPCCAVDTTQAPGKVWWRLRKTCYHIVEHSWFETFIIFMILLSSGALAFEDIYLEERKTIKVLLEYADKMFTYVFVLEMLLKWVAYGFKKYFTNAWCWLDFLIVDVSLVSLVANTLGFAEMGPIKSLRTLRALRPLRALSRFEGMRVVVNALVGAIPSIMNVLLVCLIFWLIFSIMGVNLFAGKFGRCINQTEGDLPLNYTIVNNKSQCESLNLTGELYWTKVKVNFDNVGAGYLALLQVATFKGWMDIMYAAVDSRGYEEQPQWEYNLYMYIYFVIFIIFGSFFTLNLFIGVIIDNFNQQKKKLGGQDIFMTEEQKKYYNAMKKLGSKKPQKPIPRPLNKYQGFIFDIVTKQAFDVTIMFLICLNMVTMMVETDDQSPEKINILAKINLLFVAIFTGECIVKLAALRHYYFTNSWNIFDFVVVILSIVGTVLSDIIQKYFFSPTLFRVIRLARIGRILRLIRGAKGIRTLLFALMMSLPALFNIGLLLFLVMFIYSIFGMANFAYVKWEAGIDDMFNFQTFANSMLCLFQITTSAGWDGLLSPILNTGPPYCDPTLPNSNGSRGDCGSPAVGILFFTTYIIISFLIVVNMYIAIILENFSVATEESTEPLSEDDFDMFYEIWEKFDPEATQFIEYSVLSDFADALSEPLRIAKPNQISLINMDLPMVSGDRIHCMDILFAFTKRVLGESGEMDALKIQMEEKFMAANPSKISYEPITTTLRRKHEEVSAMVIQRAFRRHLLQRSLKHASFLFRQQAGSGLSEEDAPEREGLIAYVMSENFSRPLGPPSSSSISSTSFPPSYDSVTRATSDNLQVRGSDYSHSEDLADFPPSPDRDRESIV

[37] = target: T2, Sodium channel protein type 5 subunit alpha; assay: Inhibition of human Nav1.5 channel expressed in HEK293 cells at -90 mV by patch clamp method; assay type: cell-based
[38] = target: T3, Sodium channel protein type 9 subunit alpha (Homo sapiens, UniProt Q15858); assay: Inhibition of human Nav1.7 channel expressed in HEK293 cells at -120 mV by patch clamp method; assay type: cell-based
[39] = target: T3, Sodium channel protein type 9 subunit alpha; assay: Inhibition of human Nav1.7 channel expressed in HEK293 cells at -60 mV by patch clamp method; assay type: cell-based
Rattus norvegicus [40] = assay: Analgesic activity in rat complete Freund's adjuvant-induced mechanical hyperalgesia model assessed as paw withdrawal latency at 100 mg/kg, ip after 2 days; assay type: functional; details: route intraperitoneal
D(1B) dopamine receptor = D(1B) dopamine receptor (Homo sapiens, UniProt P21918); assay: Displacement of [3H]SCH23390 from dopamine D5 receptor
[41] = Displacement of [125I]TNFalpha from TNFalpha receptor
Histamine H1 receptor = Histamine H1 receptor (Homo sapiens, UniProt P35367); assay: Displacement of [3H]pyrilamine from histamine H1 receptor
Histamine H2 receptor = Histamine H2 receptor (Homo sapiens, UniProt P25021); assay: Displacement of [125I]APT from histamine H2 receptor
[42] = target: Muscarinic acetylcholine receptor M2 (Homo sapiens, UniProt P08172); assay: Displacement of [3H]AF-DX384 from muscarinic M2 receptor
[43] = target: Muscarinic acetylcholine receptor M3 (Homo sapiens, UniProt P20309); assay: Displacement of [3H]4DAMP from muscarinic M3 receptor
[44] = target: Muscarinic acetylcholine receptor M5 (Homo sapiens, UniProt P08912); assay: Displacement of [3H]4DAMP from muscarinic M5 receptor
Nociceptin receptor = Nociceptin receptor (Homo sapiens, UniProt P41146); assay: Displacement of [3H]nociceptin from ORL1 receptor

In the case of `COc1cc(NC(=O)c2ccc(-c3ccc(Cl)cc3)o2)cc(OC)c1`, the Activity (Rattus norvegicus [1]) is reported as 70%, the ED50 (Rattus norvegicus [2]) is reported as 85 mg/kg and the ED50 (Rattus norvegicus [3]) is reported as 70 mg/kg. For the same compound, the ED50 (Rattus norvegicus [4]) was over 100 mg/kg, the ED50 (Rattus norvegicus [5]) was over 100 mg/kg and the Activity (Rattus norvegicus [6]) was 32%. For the same compound, the ED50 (Mus musculus) was over 100 mg/kg, the ED50 (Rattus norvegicus [7]) was over 100 mg/kg and the Activity (Rattus norvegicus [8]) was 25%. For the same compound, the ED50 (Rattus norvegicus [9]) was over 300 mg/kg, the Activity (Rattus norvegicus [10]) was 12% and the ED50 (Rattus norvegicus [11]) was over 300 mg/kg. The IC50 (P2Y purinoceptor 2) was over 10 µM, the IC50 [12] was over 10 µM and the IC50 [13] was 3 µM. The IC50 [14] was over 10 µM, the IC50 [15] was over 10 µM and the IC50 [16] was 0.045 µM. For the same compound, the bioavailability [17] was 12.8%, the clearance [18] was 25 mL/min/kg and the Cmax [19] was 190 ng/mL. The IC50 [20] was over 10 µM, the Activity (DRG neuron) was “inactive” and the bioavailability [21] was 26%. The concentration at 0.75 h [22] was 400 ng/mL, the fraction unbound [23] was 0.013 and the Activity (Rattus norvegicus [24]) was 66%. The ED50 (Rattus norvegicus [25]) was over 100 mg/kg, the ED50 (Rattus norvegicus [26]) was 65 mg/kg and the ED50 (Rattus norvegicus [27]) was over 100 mg/kg. For the same compound, the ED50 (Rattus norvegicus [28]) was 100 mg/kg, the Activity (Rattus norvegicus [29]) was 46% and the Activity (Rattus norvegicus [30]) was 54%. The ED50 (Rattus norvegicus [31]) was over 100 mg/kg, the IC50 (Adenosine receptor A1) was over 10 µM and the IC50 [32] was over 10 µM. It also gave an IC50 (Endothelin-1 receptor) of over 10 µM, an IC50 (Cannabinoid receptor 2) of over 10 µM and an IC50 [33] of 9.49 µM. The IC50 [34] was 11.8 µM, the IC50 [35] was 2.45 µM and the IC50 [36] was 32.8 µM. For the same compound, the IC50 [37] was 7.34 µM, the IC50 [38] was 35.3 µM and the IC50 [39] was 6.74 µM. It also gave an Activity (Rattus norvegicus [40]) of 34%, an IC50 (D(1B) dopamine receptor) of over 10 µM and an IC50 [41] of over 10 µM. It also gave an IC50 (Histamine H1 receptor) of over 10 µM, an IC50 (Histamine H2 receptor) of over 10 µM and an IC50 [42] of over 10 µM. For the same compound, the IC50 [43] was over 10 µM, the IC50 [44] was over 10 µM and the IC50 (Nociceptin receptor) was over 10 µM.
